Measurements taken from US8226972B2, “Vaginal delivery of drugs” (FemmePharma Holding Company, Inc., priority 2001, dated 2012).

Key:
Type in all cases: in vivo, rabbit
bladder [1] = assay: Example 1: cystometry (bladder capacity, Bladder Compliance); details: high dose (0.5 g/g gel) vaginal
From the text: (§1) 16 mature female New Zealand white rabbits were separated into two groups of eight. The rabbits in Group 1 received a high dose oxybutynin formulations; and the rabbits in Group 2 received a low dose oxybutynin formulation. For the high dose, 3 grams (g) of oxybutynin HCl were suspended in 6 g of gel (yielding a concentration of 0.5 g Oxybutynin/g gel) and 3 g of the formulation were placed in the vagina. For the low dose, 0.3 g of oxybutynin HCl were suspended in 6 g of gel (yielding a concentration of 0.05 g Oxybutynin/g gel), and 3 g of the formulation were placed in the vagina.
(§2) The bladder was exposed through a midline incision, and the bladder dome was catheterized with an 8 F catheter for both the monitoring of bladder pressure and for cystometry. The bladder neck-urethra was ligated to prevent micturition or leakage through the urethra. The catheter was connected to an infusion pump (Harvard Apparatus) and a pressure transducer.
Then, the rabbit was taken off of the isoflurane and anesthesia was maintained by ketamine-xylazine so that micturition reflexes could be observed during cystometry. […] Bladder capacity and Bladder Compliance were determined. […]
After the third Ach administration, the application of the oxybutynin containing gel was administered to the vagina and the responses to Ach were determined at 15-minute intervals for 2 hours. […]

bladder [2] = assay: Example 3: cystometry after vaginal or oral oxybutynin; details: for micturition pressure: four hours after administration
Procedure: 30 mature female New Zealand white rabbits (˜4 kg) were separated into five groups of six rabbits each. Intra arterial administration of Ach was used as a model for hyperreflexia. The effects on intra arterial stimulated contraction were compared with effects on micturition pressure generation.
(§3) Each rabbit was sedated with an intramuscular injection of ketamine-xylazine ((25 mg ketamine+6 mg xylazine)/kg rabbit) and anesthesia was maintained by isoflurane. After anesthesia, the right external carotid artery was cannulated for blood pressure monitoring. A polyethylene catheter (Intramedic) with an outer diameter of 0.043 inches was inserted through the rabbit's right femoral artery until it reached the lower abdominal aorta (approximately 0.5 Central Mutual above the bifurcation of the aorta). A heparizined saline (30 iu/mL) filled polyethylene catheter was used for intra-arterial administration of drugs. To facilitate the delivery of the maximum amount of drugs to the urinary bladder, the rabbit's left femoral artery was ligated.
The bladder was exposed through a midline incision, and the bladder dome was catheterized with an 8 F catheter for both the monitoring of bladder pressure and for cystometry. The bladder neck-urethra was ligated to prevent micturition or leakage through the urethra. The catheter was connected to an infusion pump (Harvard Apparatus) and a pressure tranducer. The right carotid artery was cannulated for monitoring blood pressure. Bladder pressure and blood pressure were recorded on a Grass model 7D Polygraph, and were simultaneously digitized using a Polyview A/D digital analytical system.
Cystometry was performed at 1.4 mL/min until a micturition contraction or a volume of 80 mL was obtained. After the first cystometry, Ach (10^−6 mol/kg) was injected through the intra-arterial polyethylene catheter in a volume of 0.1 ml/kg followed by three washes of 0.2 ml of heparinized saline. The blood pressure and bladder pressure responses were recorded and digitized.
After three consistent Ach tests, (i.e. responses within 20% of each other) the rabbits in the control group (Group 1) received a vaginal administration of 3 mL of gel (no oxybutynin); the rabbits in the high dose group (Group 2) received a vaginal administration of 1.5 g of oxybutynin suspended in 3 mL of gel; the rabbits in the intermediate dose group (Group 3) received 0.5 g of oxybutynin suspended in 3 mL of gel; the rabbits in the low dose group (Group 4) received a vaginal administration of 0.15 g of oxybutynin suspended in 3 mL of gel; and the rabbits in the oral dose group (Group 5) received 0.5 g of an oral preparation of oxybutynin dissolved in 3 mL of saline.
Ach was administered at 10 minute intervals for two hours, and then a second cystometry was performed. Ach administration continued at 10 minute intervals for a second two hour period, and then a final cystometry performed.
Statistical significance was determined using analysis of variance followed by Bonferroni test for individual differences. A p<0.05 was required for significance.

bladder [3] = assay: Example 2: cystometry at 1.42 mL/minute after vaginal oxybutynin
From the text: as §1, §2
Then, the rabbit was taken off of the isoflurane and anesthesia was maintained by ketamine-xylazine so that micturition reflexes could be observed during cystometry. After 15 minutes, the infusion pump was turned on and at an infusion rate of 1.0 mL/minute, a cystometric curve was generated. The volume at which a micturition reflex was observed was considered to be the functional capacity of the bladder. Bladder capacity and Bladder Compliance were determined. The bladder was then filled to 20 mL.
(§4) After the third Ach administration, the application of the oxybutynin containing gel was administered to the vagina and the responses to Ach were determined at 15-minute intervals for 2 hours. When the response to Ach was reduced, then the time period was extended to 4 hours. At the end of the experiment, a second cystometric curve was generated.
The protocol described in Example 1 was followed in this experiment, with the following changes. The infusion pump was turned on and, at an infusion rate of 1.42 mL/minute, a cystometric curve was generated.

bladder [4] = assay: Example 1: bladder pressure response to intra-arterial Ach after vaginal oxybutynin gel; details: for response of the bladder pressure to Ach: high dose (0.5 g Oxybutynin/g gel, 3 g vaginal)
From the text: as §1
as §3, with “cm” for “Central Mutual”
as §2
Acetylcholine (Ach), a chemical that causes the bladder muscle (detrusor) to squeeze or contract, was injected through the intra-arterial polyethylene catheter in a volume of 0.31-0.39 mL (i.e., 0.1 mL/kg of rabbit), followed by 0.2 mL of heparinized saline. Change of intravesical pressure following the administration of Ach (10^−6 mol/kg) was monitored by the pressure transducer and recorded on a Grass model 7D polygraph. A 10-minute interval passed between Ach administrations, and three flushes of normal saline, in an amount of 0.1 ml/kg of rabbit, were administered. Three responses to Ach were performed at 10-minute intervals to ensure consistent responses.
as §4

SMILES: CCN(CC)CC#CCOC(=O)C(O)(c1ccccc1)C1CCCCC1 (centres unmarked) [oxybutynin]
- Bladder Compliance (bladder [1]): significant decrease
- bladder volume at micturition (bladder [1]): increase
- bladder volume at micturition (bladder [2]; all of the formulations (vaginal low, intermediate, high; oral)): significant increase
- Bladder Compliance (bladder [2]; all oxybutynin-treated groups): decreased
- decrease of Bladder Compliance (bladder [2]; high dose vaginal): 7.3 fold
- micturition reflex (bladder [2]; highest dose): virtually eliminated
- decrease of Bladder Compliance (bladder [2]; intermediate dose vaginal): 4.5 fold
- decrease of Bladder Compliance (bladder [2]; low dose vaginal): 3.3 fold
- intravesical pressure immediately prior to micturition (bladder [2]; oral (0.5 g in 3 mL saline)): significantly reduced
- inhibitory effects on the micturition reflex, oral compared with the vaginal route (bladder [2]; oral preparation vs intermediate dose vaginal): significantly greater inhibitory effects
- effect on Bladder Compliance and bladder capacity, oral compared with the vaginal route (bladder [2]; oral preparation vs intermediate dose vaginal (equal effects on Ach stimulated contraction)): smaller effect
- micturition pressure (bladder [2]; oral): significantly reduced
- intravesical pressure immediately prior to micturition (bladder [2]; vaginal high dose (1.5 g in 3 mL gel)): significantly reduced
- micturition pressure (bladder [2]; vaginal high dose): significantly reduced
- intravesical pressure immediately prior to micturition (bladder [2]; vaginal intermediate dose (0.5 g in 3 mL gel)): significantly reduced
- micturition pressure (bladder [2]; vaginal intermediate dose): not significantly affected
- intravesical pressure immediately prior to micturition (bladder [2]; vaginal low dose (0.15 g in 3 mL gel)): no significant effect
- micturition pressure (bladder [2]; vaginal low dose): not significantly affected
- Bladder Compliance (bladder [3]; high dose vaginal): significant decrease
- intravesical pressure during cystometry (bladder [3]; high dose vaginal): decreased
- intravesical volume at micturition (no micturition reflex up to this volume; cystometry stopped) (bladder [3]; high dose vaginal, before approximately 20 mL): > 80 mL
- micturition reflex (bladder [3]; high dose vaginal, up to bladder volume of 80 mL): inhibited
- Bladder Compliance (bladder [3]; low dose vaginal): decrease
- intravesical pressure during cystometry (at micturition) (bladder [3]; low dose vaginal, after administration (about 15 before), FIG. 4): about 8 cm H2O
- pressure at which micturition occurred (bladder [3]; low dose vaginal, after administration (about 16 before), FIG. 3): about 8 cm H2O
- magnitude of the micturition reflex (micturition pressure) (bladder [3]; low dose vaginal, after administration (about 22 before)): about 10 cm H2O
- intravesical volume at micturition (bladder [3]; low dose vaginal, after treatment, approximately the same as before): about 22 mL
- response of the bladder pressure to Ach (bladder [4]; 15 minutes after administration): completely lost
- response of the bladder pressure to Ach (bladder [4]; 4 hours after administration): did not increase
- reduction of the response of the bladder pressure to Ach (bladder [4]; low dose (0.05 g/g gel) vaginal, one experiment): about 50%
- effect on bladder pressure response to Ach (bladder [4]; low dose (0.05 g/g gel) vaginal, two out of three experiments): no significant effect
- contractile response of the bladder to Ach (bladder [4]; vaginally delivered high dose, overall): significantly reduced
